Test results: paper PMC6511943, “Structure-Guided Drug Design of 6-Substituted Adenosine Analogues as Potent Inhibitors of Mycobacterium tuberculosis Adenosine Kinase” (Journal of Medicinal Chemistry, 2019)

Tested on: Mtb H37Rv-resistant mutants (adoK D251N, Q172P, G262S)
Assay type: cell-based, Mycobacterium tuberculosis

Structure (SMILES): Nc1ncnc2c1c(I)cn2[C@@H]1O[C@H](CO)[C@@H](O)[C@H]1O [Compound 2, Iodotubercidin]
- MIC: > 100 µM
